Here are results for eleven compounds from ChEMBL document CHEMBL4017531, “Design and Structure-Guided Development of Novel Inhibitors of the Xeroderma Pigmentosum Group A (XPA) Protein-DNA Interaction” (J Med Chem, 2017).

Calls of active or inactive are those of the source. The rule behind the calls is not given here.

What is called IC50 is the concentration at which inhibition is half-maximal.

One assay has as its system Salmonidae. Briefly: Binding affinity to salmon sperm DNA assessed as DNA intercalation by SYBR-green dye based fluorescence assay.
For a further assay, the species on record is Homo sapiens. The note with it: 10 uM.
Assay [1] has as its target DNA repair protein complementing XP-A cells (Homo sapiens, UniProt P23025). Put plainly: Inhibition of full length human XPA expressed in Sf9 cells assessed as reduction in interaction of XPA with 32P-labeled cisplatin-modified dsDNA by EMSA. In general terms: A gel shift assay detects complexes by their altered migration in electrophoresis.

Sequence of DNA repair protein complementing XP-A cells (P23025 whole entry): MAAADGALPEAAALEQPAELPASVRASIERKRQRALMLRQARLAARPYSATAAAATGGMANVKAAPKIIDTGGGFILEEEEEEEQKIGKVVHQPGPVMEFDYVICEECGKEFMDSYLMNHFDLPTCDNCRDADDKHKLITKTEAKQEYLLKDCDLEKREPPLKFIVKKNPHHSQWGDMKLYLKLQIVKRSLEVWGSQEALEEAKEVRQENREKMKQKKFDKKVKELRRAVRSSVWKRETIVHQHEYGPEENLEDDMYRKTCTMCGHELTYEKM
Description for Homo sapiens: Inhibition of RPA (unknown origin) at 10 uM by EMSA assay

Regarding `CC1=NN(c2cccc(C(=O)O)c2)C(=O)/C1=C\c1ccc(-c2ccc(Cl)c(C(=O)NCC3CC3)c2)o1`, the result with Salmonidae was inactive.

Regarding `CC1=NN(c2cccc(C(=O)O)c2)C(=O)/C1=C\c1ccc(-c2ccc(Cl)c(C(=O)NCc3ccc(F)cc3)c2)o1`, the result in the assay with Salmonidae was inactive.

As to `CC1=NN(c2ccc(C(=O)O)cc2)C(=O)/C1=C\c1ccc(-c2ccc(C(=O)NCc3ccc(F)cc3)cc2)o1`, the result in the assay with Salmonidae was inactive.

Turning to `CC1=NN(c2ccc(C(=O)O)cc2)C(=O)/C1=C\c1ccc(-c2ccc(Cl)c(C(=O)NCc3ccc(F)cc3)c2)o1`, in the assay filed under Homo sapiens, the inhibition result is “inactive”. Moreover, the outcome with Salmonidae was inactive.

For `CCOC(=O)c1cccc(N2N=C(C)/C(=C/c3ccc(-c4ccc(Cl)c(C(=O)NCc5ccc(F)cc5)c4)o3)C2=O)c1`, in assay [1], the concentration for half-maximal inhibition (IC50) is greater than 25 µM.

As to `CC1=NN(c2ccc(Cl)c(C(=O)O)c2)C(=O)/C1=C\c1ccc(-c2ccc(Cl)c(C(=O)OCc3ccccc3)c2)o1`, the inhibition entry in the assay listed under Homo sapiens is “inactive”. Moreover, in the assay on Salmonidae, the result was Active.

With `CC1=NN(c2ccc(C(=O)O)cc2)C(=O)/C1=C\c1ccc(-c2ccc(Cl)c(C(=O)NCC3CC3)c2)o1`, the inhibition entry in the assay listed under Homo sapiens is “inactive”. In addition, in the assay on Salmonidae, the result was inactive.

As to `CC1=NN(c2ccc(Cl)c(C(=O)O)c2)C(=O)/C1=C\c1ccc(-c2ccc(Cl)c(C(=O)OCc3ccccc3Cl)c2)o1`, the inhibition entry in the assay listed under Homo sapiens is “inactive”. In addition, in the assay with Salmonidae, the outcome was Active.

Regarding `CC1=NN(c2cccc(C(=O)NCC3CC3)c2)C(=O)/C1=C\c1ccc(-c2ccc(Cl)c(C(=O)NCC3CC3)c2)o1`, the concentration for half-maximal inhibition (IC50) in assay [1] is greater than 50 µM.

As to `CC1=NN(c2cccc(C(=O)O)c2)C(=O)/C1=C\c1ccc(-c2ccc(C(=O)NCC3CC3)cc2)o1`, in assay [1], the IC50 is greater than 50 µM.

As for `CC1=NN(c2cccc(C(=O)O)c2)C(=O)/C1=C\c1ccc(-c2ccc(C(=O)NCc3ccc(F)cc3)cc2)o1`, the half-maximal inhibitory concentration (IC50) in assay [1] was greater than 50 µM.
